Experiments:
Conditions in all cases: exposure time: 72 h
[1] = system: E13 (patient-derived glioblastoma stem cells of classical subtype); test: surviving fraction (nuclei count normalised to DMSO); higher = more cells surviving (less toxic)
[2] = system: E21 (patient-derived glioblastoma stem cells of mesenchymal subtype); test: as above
[3] = system: E28 (patient-derived glioblastoma stem cells of classical subtype); test: as above
[4] = system: E31 (patient-derived glioblastoma stem cells of proneural subtype); test: as above
[5] = system: E34 (patient-derived glioblastoma stem cells of proneural subtype); test: as above
[6] = system: E57 (patient-derived glioblastoma stem cells of mesenchymal subtype); test: as above
[7] = system: FT3469 (normal neural stem cell line); test: as above
[8] = system: E13; test: phenotypic distance (Euclidean, principal components) from DMSO controls (arbitrary units); higher = stronger morphological change
[9] = system: E21; test: as above
[10] = system: E28; test: as above
[11] = system: E31; test: as above
[12] = system: E34; test: as above
[13] = system: E57; test: as above
[14] = system: FT3469; test: as above
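Wherever phenotypic distance (Euclidean, principal components) from DMSO controls is given: cell Painting imaging in 384-well plates, CellProfiler features reduced to at least 20 principal components, Euclidean distance versus same-plate DMSO vehicle wells (0.1% v/v), median over six images per well.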
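Wherever surviving fraction (nuclei count normalised to DMSO) is given: nuclei counted by high-content imaging of Hoechst-stained cells in laminin-coated 384-well plates, relative to 0.1% DMSO vehicle wells, with staurosporine as cell-death control.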

COc1cccc2c1C(=O)c1c(O)c3c(c(O)c1C2=O)C[C@@](O)(C(=O)CO)C[C@@H]3O[C@H]1C[C@H](N)[C@H](O[C@@H]2CCCCO2)[C@H](C)O1 [Pirarubicin]
Conditions	phenotypic distance	surviving fraction
[1], 4.1 nM	–	0.384
[1], 12.3 nM	–	0.325
[1], 37 nM	–	0.263
[1], 111.1 nM	–	0.0805
[1], 333.3 nM	–	0.1
[1], 1000 nM	–	0.0786
[1], 3000 nM	–	0.0218
[2], 4.1 nM	–	0.251
[2], 12.3 nM	–	0.305
[2], 37 nM	–	0.194
[2], 111.1 nM	–	0.13
[2], 333.3 nM	–	0.0649
[2], 1000 nM	–	0.0703
[2], 3000 nM	–	0.0202
[3], 4.1 nM	–	0.322
[3], 12.3 nM	–	0.276
[3], 37 nM	–	0.244
[3], 111.1 nM	–	0.14
[3], 333.3 nM	–	0.347
[3], 1000 nM	–	0.209
[3], 3000 nM	–	0.0681
[4], 4.1 nM	–	0.141
[4], 12.3 nM	–	0.184
[4], 37 nM	–	0.101
[4], 111.1 nM	–	0.058
[4], 333.3 nM	–	0.107
[4], 1000 nM	–	0.0565
[4], 3000 nM	–	0.0104
[5], 4.1 nM	–	0.51
[5], 12.3 nM	–	0.559
[5], 37 nM	–	0.488
[5], 111.1 nM	–	0.527
[5], 333.3 nM	–	0.331
[5], 1000 nM	–	0.488
[5], 3000 nM	–	0.214
[6], 4.1 nM	–	0.226
[6], 12.3 nM	–	0.199
[6], 37 nM	–	0.176
[6], 111.1 nM	–	0.106
[6], 333.3 nM	–	0.126
[6], 1000 nM	–	0.122
[6], 3000 nM	–	0.0208
[7], 4.1 nM	–	0.631
[7], 12.3 nM	–	0.549
[7], 37 nM	–	0.534
[7], 111.1 nM	–	0.31
[7], 333.3 nM	–	0.381
[7], 1000 nM	–	0.354
[7], 3000 nM	–	0.144
[8], 4.1 nM	5.19	–
[8], 12.3 nM	5.1	–
[8], 37 nM	4.19	–
[8], 111.1 nM	5.27	–
[8], 333.3 nM	5.59	–
[8], 1000 nM	5.06	–
[8], 3000 nM	6.07	–
[9], 4.1 nM	5.11	–
[9], 12.3 nM	7.13	–
[9], 37 nM	6.25	–
[9], 111.1 nM	6.76	–
[9], 333.3 nM	7.24	–
[9], 1000 nM	6.47	–
[9], 3000 nM	9.02	–
[10], 4.1 nM	4.14	–
[10], 12.3 nM	4.17	–
[10], 37 nM	4.19	–
[10], 111.1 nM	5.37	–
[10], 333.3 nM	4.96	–
[10], 1000 nM	5.04	–
[10], 3000 nM	4.01	–
[11], 4.1 nM	3.76	–
[11], 12.3 nM	3.17	–
[11], 37 nM	4.87	–
[11], 111.1 nM	6.24	–
[11], 333.3 nM	4.82	–
[11], 1000 nM	7.62	–
[11], 3000 nM	10.2	–
[12], 4.1 nM	3.49	–
[12], 12.3 nM	3.06	–
[12], 37 nM	2.17	–
[12], 111.1 nM	4.14	–
[12], 333.3 nM	2.6	–
[12], 1000 nM	3.14	–
[12], 3000 nM	5.46	–
[13], 4.1 nM	7.85	–
[13], 12.3 nM	8.69	–
[13], 37 nM	8.43	–
[13], 111.1 nM	8.17	–
[13], 333.3 nM	5.64	–
[13], 1000 nM	5.25	–
[13], 3000 nM	7.33	–
[14], 4.1 nM	2.41	–
[14], 12.3 nM	2.29	–
[14], 37 nM	3.24	–
[14], 111.1 nM	6.3	–
[14], 333.3 nM	5.37	–
[14], 1000 nM	5.38	–
[14], 3000 nM	7.66	–

CC(C)N1CCN(c2ccc(OCC3COC(Cn4cncn4)(c4ccc(Cl)cc4Cl)O3)cc2)CC1 (stereo unspecified) [Terconazole]
Conditions	phenotypic distance	surviving fraction
[1], 4.1 nM	–	0.892
[1], 12.3 nM	–	0.918
[1], 37 nM	–	0.999
[1], 111.1 nM	–	0.856
[1], 333.3 nM	–	0.988
[1], 1000 nM	–	1.02
[1], 3000 nM	–	0.958
[2], 4.1 nM	–	0.938
[2], 12.3 nM	–	0.927
[2], 37 nM	–	0.891
[2], 111.1 nM	–	0.99
[2], 333.3 nM	–	0.933
[2], 1000 nM	–	1.03
[2], 3000 nM	–	0.813
[3], 4.1 nM	–	1.15
[3], 12.3 nM	–	1.04
[3], 37 nM	–	0.91
[3], 111.1 nM	–	0.941
[3], 333.3 nM	–	1.09
[3], 1000 nM	–	1.02
[3], 3000 nM	–	0.951
[4], 4.1 nM	–	1.04
[4], 12.3 nM	–	0.925
[4], 37 nM	–	0.922
[4], 111.1 nM	–	1.01
[4], 333.3 nM	–	0.96
[4], 1000 nM	–	0.889
[4], 3000 nM	–	0.873
[5], 4.1 nM	–	0.941
[5], 12.3 nM	–	0.827
[5], 37 nM	–	0.91
[5], 111.1 nM	–	1.04
[5], 333.3 nM	–	1.01
[5], 1000 nM	–	1.1
[5], 3000 nM	–	0.994
[6], 4.1 nM	–	0.985
[6], 12.3 nM	–	0.938
[6], 37 nM	–	0.963
[6], 111.1 nM	–	1
[6], 333.3 nM	–	0.978
[6], 1000 nM	–	1
[6], 3000 nM	–	0.948
[7], 4.1 nM	–	0.997
[7], 12.3 nM	–	0.89
[7], 37 nM	–	0.908
[7], 111.1 nM	–	0.85
[7], 333.3 nM	–	0.987
[7], 1000 nM	–	0.952
[7], 3000 nM	–	0.964
[8], 4.1 nM	0.687	–
[8], 12.3 nM	5.3	–
[8], 37 nM	0.523	–
[8], 111.1 nM	0.619	–
[8], 333.3 nM	0.667	–
[8], 1000 nM	0.49	–
[8], 3000 nM	0.901	–
[9], 4.1 nM	0.486	–
[9], 12.3 nM	0.855	–
[9], 37 nM	0.706	–
[9], 111.1 nM	0.737	–
[9], 333.3 nM	0.686	–
[9], 1000 nM	0.994	–
[9], 3000 nM	1.83	–
[10], 4.1 nM	0.79	–
[10], 12.3 nM	0.643	–
[10], 37 nM	0.472	–
[10], 111.1 nM	0.647	–
[10], 333.3 nM	0.465	–
[10], 1000 nM	0.53	–
[10], 3000 nM	2.3	–
[11], 4.1 nM	0.557	–
[11], 12.3 nM	1.01	–
[11], 37 nM	0.47	–
[11], 111.1 nM	0.863	–
[11], 333.3 nM	0.868	–
[11], 1000 nM	0.76	–
[11], 3000 nM	2.39	–
[12], 4.1 nM	0.517	–
[12], 12.3 nM	1.12	–
[12], 37 nM	0.485	–
[12], 111.1 nM	0.473	–
[12], 333.3 nM	0.562	–
[12], 1000 nM	0.745	–
[12], 3000 nM	0.672	–
[13], 4.1 nM	0.465	–
[13], 12.3 nM	0.601	–
[13], 37 nM	0.61	–
[13], 111.1 nM	0.332	–
[13], 333.3 nM	0.688	–
[13], 1000 nM	0.505	–
[13], 3000 nM	1.09	–
[14], 4.1 nM	0.835	–
[14], 12.3 nM	0.931	–
[14], 37 nM	1.01	–
[14], 111.1 nM	0.79	–
[14], 333.3 nM	0.822	–
[14], 1000 nM	0.77	–
[14], 3000 nM	1.17	–

— the supplement of paper PMC13207355
